Results from ChEMBL document CHEMBL1806384, “Identification of benzofuran-4,5-diones as novel and selective non-hydroxamic acid, non-peptidomimetic based inhibitors of human peptide deformylase” (Bioorg Med Chem Lett, 2011).

How the values were obtained:
Peptide deformylase = target: T1, Peptide deformylase (Escherichia coli, UniProt Q9JN24); experiment: Inhibition of Escherichia coli peptide deformylase after 1 hr by fluorescence polarization based competition assay
T1 sequence (Q9JN24 whole entry): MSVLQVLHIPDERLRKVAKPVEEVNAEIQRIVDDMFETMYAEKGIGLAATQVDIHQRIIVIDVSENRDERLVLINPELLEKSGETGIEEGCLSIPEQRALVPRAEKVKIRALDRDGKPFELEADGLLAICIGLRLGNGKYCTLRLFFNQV

HL-60 [1] = experiment: Antitumor activity against human HL60 cells xenografted in athymic nude mouse assessed as tumor growth delay at 15 mg/kg, ip administered 3 times a week for 2 weeks; format: functional; conditions: route intraperitoneal
[2] = Cytotoxicity against human CWR22 cells; format: functional, cell-based
MOLT-3 = experiment: Cytotoxicity against human MOLT3 cells; format: functional, cell-based
HL-60 [3] = experiment: Cytotoxicity against human vincristine-resistant HL60 cells; format: functional, cell-based
[4] = Cytotoxicity against human Meso47 cells; format: functional, cell-based
[5] = target: T2, Peptide deformylase (Escherichia coli) (UniProt Q9JN24); experiment: Inhibition of Escherichia coli peptide deformylase at 100 uM after 1 hr by fluorescence polarization based competition assay
T2 sequence (whole entry): T1 sequence (Q9JN24 whole entry)

HEK293 = experiment: Cytotoxicity against human HEK293 cells; format: cell-based
[6] = target: T3, Aminopeptidase N (Sus scrofa) (UniProt P15145); experiment: Inhibition of porcine kidney microsomal aminopeptidase N at 100 uM after 1 hr by fluorescence polarization based competition assay
T3 sequence (whole entry): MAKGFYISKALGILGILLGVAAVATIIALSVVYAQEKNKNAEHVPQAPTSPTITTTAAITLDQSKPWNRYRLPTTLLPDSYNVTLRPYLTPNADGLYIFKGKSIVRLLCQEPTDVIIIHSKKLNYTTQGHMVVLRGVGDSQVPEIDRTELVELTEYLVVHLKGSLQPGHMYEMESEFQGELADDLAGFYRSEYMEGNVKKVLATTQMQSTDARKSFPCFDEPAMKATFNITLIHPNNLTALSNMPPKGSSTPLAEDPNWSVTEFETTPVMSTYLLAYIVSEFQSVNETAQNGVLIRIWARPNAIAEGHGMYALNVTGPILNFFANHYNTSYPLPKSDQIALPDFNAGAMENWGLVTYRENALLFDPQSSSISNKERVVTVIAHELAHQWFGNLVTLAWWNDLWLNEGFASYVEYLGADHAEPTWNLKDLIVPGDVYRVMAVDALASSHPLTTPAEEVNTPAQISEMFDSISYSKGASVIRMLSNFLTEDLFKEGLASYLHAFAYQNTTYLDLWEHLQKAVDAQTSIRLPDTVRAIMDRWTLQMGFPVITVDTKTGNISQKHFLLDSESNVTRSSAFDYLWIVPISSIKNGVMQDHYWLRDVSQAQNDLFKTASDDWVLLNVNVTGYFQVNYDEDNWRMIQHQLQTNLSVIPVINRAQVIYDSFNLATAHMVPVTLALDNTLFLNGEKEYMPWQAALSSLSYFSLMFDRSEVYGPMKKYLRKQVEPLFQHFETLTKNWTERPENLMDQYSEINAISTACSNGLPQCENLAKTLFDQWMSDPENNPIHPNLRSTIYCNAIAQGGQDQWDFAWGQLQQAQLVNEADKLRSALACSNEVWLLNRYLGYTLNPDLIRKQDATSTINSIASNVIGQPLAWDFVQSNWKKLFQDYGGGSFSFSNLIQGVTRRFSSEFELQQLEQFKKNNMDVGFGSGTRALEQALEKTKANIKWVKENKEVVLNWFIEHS

[7] = Cytotoxicity against human ALL3 cells; format: functional, cell-based
Y79 = experiment: Cytotoxicity against human Y79 cells; format: functional, cell-based
Jurkat = experiment: Cytotoxicity against human Jurkat cells; format: functional, cell-based
[8] = target: T4, Interstitial collagenase (Homo sapiens) (UniProt P03956); experiment: Inhibition of human recombinant MMP1 at 100 uM after 1 hr by fluorescence polarization based competition assay
T4 sequence (whole entry): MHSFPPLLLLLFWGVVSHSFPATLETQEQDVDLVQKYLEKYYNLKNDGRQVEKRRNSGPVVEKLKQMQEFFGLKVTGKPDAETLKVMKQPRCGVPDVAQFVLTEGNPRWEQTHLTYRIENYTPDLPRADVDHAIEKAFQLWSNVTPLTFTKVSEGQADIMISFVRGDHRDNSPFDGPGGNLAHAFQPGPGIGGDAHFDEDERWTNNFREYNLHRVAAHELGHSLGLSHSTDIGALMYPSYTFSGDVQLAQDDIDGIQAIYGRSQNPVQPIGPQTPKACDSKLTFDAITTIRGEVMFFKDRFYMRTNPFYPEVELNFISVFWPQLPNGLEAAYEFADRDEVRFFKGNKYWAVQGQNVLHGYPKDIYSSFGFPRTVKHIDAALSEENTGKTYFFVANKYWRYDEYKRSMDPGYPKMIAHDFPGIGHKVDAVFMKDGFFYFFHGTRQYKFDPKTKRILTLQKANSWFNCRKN

[9] = target: T5, Peptide deformylase, mitochondrial (Homo sapiens) (UniProt Q9HBH1); experiment: Inhibition of human peptide deformylase at 100 uM after 1 hr by fluorescence polarization based competition assay
T5 sequence (whole entry): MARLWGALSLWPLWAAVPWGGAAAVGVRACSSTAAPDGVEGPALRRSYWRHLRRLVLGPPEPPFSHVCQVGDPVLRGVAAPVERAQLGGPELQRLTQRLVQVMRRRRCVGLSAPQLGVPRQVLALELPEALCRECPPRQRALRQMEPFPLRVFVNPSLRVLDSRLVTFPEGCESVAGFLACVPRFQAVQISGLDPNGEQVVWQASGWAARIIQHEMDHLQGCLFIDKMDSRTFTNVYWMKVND

**Q.** With `COc1cc(C(=O)c2coc3c2C(=O)C(=O)C(Br)=C3Br)cc(OC)c1OC` as the compound, how does the IC50 (Peptide deformylase) read?
**A.** > 100 µM

**Q.** And the Activity (HL-60 [1])?
**A.** 40%

**Q.** What about the IC50 [2] of the same compound?
**A.** 21 µM

**Q.** What about the IC50 (MOLT-3) of the same compound?
**A.** 2.9 µM

**Q.** What about the IC50 (HL-60 [3]) of the same compound?
**A.** 12 µM

**Q.** And the IC50 [4]?
**A.** 37 µM

**Q.** What about the inhibition [5] of the same compound?
**A.** 32%

**Q.** What about the IC50 (HEK293) of the same compound?
**A.** 16 µM

**Q.** And the inhibition [6]?
**A.** 50%

**Q.** And the IC50 [7]?
**A.** 10 µM

**Q.** And the IC50 (Y79)?
**A.** 33 µM

**Q.** What about the IC50 (Jurkat) of the same compound?
**A.** 2.8 µM

**Q.** What about the inhibition [8] of the same compound?
**A.** 38%

**Q.** What about the inhibition [9] of the same compound?
**A.** 100%
